Experimental data reported in patent US20110189293A1, “THERAPEUTIC REGIMENS FOR THE TREATMENT OF IMMUNOINFLAMMATORY DISORDERS” (CombinatoRx, Incoporated, priority 2007, published 2011).

Key:
[1] = Equivalent corticosteroid dosing (BNF clinical dosing equivalence); settings: BNF guidelines
Method: Equivalent potency in clinical dosing is well known.
The BNF guidelines are included in Table 2 below. More specifically, Table 2 provides doses of corticosteroids equivalent to 5 mg of prednisolone and equivalent to 1 mg of prednisolone when administered in a manner according to this invention.

[2] = cited from earlier work; for Equivalent dose, equal to 5 mg prednisolone: BNF guidelines

Row | Molecule | Equivalent dose, equal to 1 mg prednisolone [1] [mg] | Equivalent dose, equal to 5 mg prednisolone [2] [mg] | broadly similar dose from clinical dosing equivalence ([2]; nasal administration, BNF 37 March 1999) [µg]
1 | CC(=O)OCC(=O)[C@@]12N=C(C)O[C@@H]1C[C@H]1[C@@H]3CCC4=CC(=O)C=C[C@]4(C)[C@H]3[C@@H](O)C[C@@]12C [Deflazacort] | 1.2 | 6 | 
2 | C[C@]12CCC(=O)C=C1CC[C@@H]1[C@@H]2[C@@H](O)C[C@@]2(C)[C@H]1CC[C@]2(O)C(=O)CO [Hydrocortisone] | 4 | 20 | 
3 | C[C@]12C=CC(=O)C=C1CC[C@H]1[C@@H]3C[C@@H](O)[C@](O)(C(=O)CO)[C@@]3(C)C[C@H](O)[C@@]12F [Triamcinolone] | 0.8 | 4 | 110
4 | CC(=O)OCC(=O)[C@@]1(O)CC[C@H]2[C@@H]3CCC4=CC(=O)CC[C@]4(C)[C@H]3C(=O)C[C@@]21C [cortisone acetate] | 5 | 25 | 
5 | methyl prednisone | 0.8 | 4 | 
